Laboratory results: patent US20160374944A1, “COMPOSITIONS AND METHODS FOR TREATING AND PREVENTING CANCER BY TARGETING AND INHIBITING CANCER STEM CELLS” (priority 2011, published 2016)

Assays:
Pancreatic CSCs [1] = experiment: gene expression by qRT-PCR; assay type: cell-based, human
Procedure: FIG. 19 is a graph showing the regulation by rottlerin of cMyc, Nanog, Oct-4, and Sox-2 in pancreatic CSCs. Pancreatic CSCs were treated with rottlerin (0-1 μM) for 24 h. The expression of Nanog, Sox-2 and cMyc was measured by qRT-PCR and normalized to GAPDH.
(A) Pancreatic CSCs were treated with rottlerin (0-1 μM) for 24 h. The expression of Patched-1, Smo and Gli-2 was measured by qRT-PCR. […] (B) Pancreatic CSCs were transduced with Gli-responsive GFP/firefly luciferase viral particles (pGreen Fire1-Gli with EF1, System Biosciences). After transduction, culture medium was replaced and CSCs were treated with rottlerin (0-2 μM) for 24 h. Gli-responsive reporter activity was measured using a luciferase assay (Promega Corporation).
(§1) (A and B) Induction of apoptosis and activation of caspase-3/-7. Pancreatic CSCs were treated with rottlerin (0-2 μM) for 48 h, and apoptosis and caspase-3/-7 activity were measured by […] and colorometric assay, respectively. […] (C) Pancreatic CSCs were treated with rottlerin (0-1 μM) for 48 h, and the expression of Bcl-2, XIAP and Survivin was measured by qRT-PCR and normalized to GAPDH.
(A and B) Pancreatic CSCs were treated with rottlerin (0-1 μM) for 24 h. The expression of Zeb-1 and Slug was measured by the qRT-PCR and normalized to GAPDH. […] (C) In vitro Matrigel invasion assay. CSCs were plated onto the Matrigel-coated membrane in the top chamber of the transwell and treated with rottlerin (0-2 μM) for 48 h. Cells invaded to the lower chamber were fixed with methanol, stained with crystal violet and photo micrographed.
(§2) (A) Regulation of caspase-3/7 activity by EGCG. CSCs were treated with EGCG (0-60 μM) for 24 h, and caspase-3/7 activity was measured as per manufacturer's instructions. […] (B) Regulation of apoptosis by EGCG. CSCs were treated with EGCG (0-60 μM) for 48 h, and apoptosis was measured by TUNEL assay. […] (C) Regulation of apoptosis-related proteins. Pancreatic CSCs were treated with EGCG (0-60 μM) for 36 h. Real time PCR (q-RT-PCR) was performed to examine the expression of Bcl-2, survivin, XIAP, and GAPDH.
[…] At the end of incubation period, cells were harvested and the expression of Nanog, Sox-2, c-Myc and Oct-4 was measured by the q-RT-PCR. […] (B) Nanog shRNA enhances the inhibitory effects of EGCG on CSC's spheroid viability. Pancreatic CSCs were transduced with either scrambled shRNA or Nanog shRNA expressing lentiviral vector (pLKO.1), and cell lysates were collected and western blot analysis was performed using anti-Nanog antibody (data not shown). CSC/scrambled and CSC/Nanog shRNA were seeded as described above and treated with EGCG (0-60 μM). After 7 days, spheroids were collected and cell suspensions were prepared and viable cells were counted by trypan blue assay.
FIG. 40A and FIG. 40C are graphs and photographs showing the inhibition of components of sonic hedgehog pathway, Gli transcription and nuclear translocation by EGCG. (A) Inhibition of components of sonic hedgehog pathway and Gli transcription. Pancreatic CSCs were treated with EGCG (0-60 μM) for 36 h. The expression of Smothened (Smo), patched 1 (PTCH1), patched 2 (PTCH2), was measured by q-RT-PCR. […] (B) Inhibition of Gli1 and Gli2 expression and Gli transcription. Pancreatic CSCs were treated with EGCG (0-60 μM) for 36 h. The expression of Gli1 and Gli2 was measured by q-RT-PCR. Gli reporter activity. CSCs were transduced with Gli-responsive GFP/firefly luciferase viral particles (pGreen Fire1-Gli with EF1, System Biosciences). After transduction, culture medium was replaced and CSCs were treated with EGCG (0-60 μM) for 24 h. Gli-responsive reporter activity was measured by luciferase assay (Promega Corporation). […] (C) EGCG inhibits nuclear translocation of Gli1 and Gli2. Pancreatic CSCs were treated with or without EGCG (40 or 60 μM) for 24 h. At the end of incubation period, CSCs were fixed with paraformaldehyde, permeabilized with titron X100, and blocked with 5% normal goat serum. […]

Pancreatic CSCs [2] = experiment: caspase-3/7 activity; assay type: cell-based, human
Procedure: as §1, §2

[3] = qRT-PCR, rottlerin 0-1 μM, 24 h
[4] = qRT-PCR, rottlerin 0-1 μM, 48 h

O=C(O[C@@H]1Cc2c(O)cc(O)cc2O[C@@H]1c1cc(O)c(O)c(O)c1)c1cc(O)c(O)c(O)c1 [EGCG, epigallocatechin gallate]
expression of Bcl-2 (Pancreatic CSCs [1]; q-RT-PCR, EGCG 0-60 μM, 36 h): inhibited the expression
expression of Gli1 (Pancreatic CSCs [1]; q-RT-PCR, EGCG 0-60 μM, 36 h): inhibited the expression
expression of Gli2 (Pancreatic CSCs [1]; q-RT-PCR, EGCG 0-60 μM, 36 h): inhibited the expression
expression of Nanog (Pancreatic CSCs [1]; q-RT-PCR, EGCG 0-60 μM, 36 h): inhibited the expression
expression of Oct-4 (Pancreatic CSCs [1]; q-RT-PCR, EGCG 0-60 μM, 36 h): inhibited the expression
expression of Patched-1 (Pancreatic CSCs [1]; q-RT-PCR, EGCG 0-60 μM, 36 h): inhibited the expression
expression of Patched-2 (Pancreatic CSCs [1]; q-RT-PCR, EGCG 0-60 μM, 36 h): inhibited the expression
expression of Sox-2 (Pancreatic CSCs [1]; q-RT-PCR, EGCG 0-60 μM, 36 h): no effect on the expression
expression of XIAP (Pancreatic CSCs [1]; q-RT-PCR, EGCG 0-60 μM, 36 h): inhibited the expression
expression of c-Myc (Pancreatic CSCs [1]; q-RT-PCR, EGCG 0-60 μM, 36 h): inhibited the expression
expression of smoothened (SMO) (Pancreatic CSCs [1]; q-RT-PCR, EGCG 0-60 μM, 36 h): inhibited the expression
expression of survivin (Pancreatic CSCs [1]; q-RT-PCR, EGCG 0-60 μM, 36 h): inhibited the expression
expression of Slug (Pancreatic CSCs [1]; q-RT-PCR, EGCG 0-60 μM, 48 h): inhibited the expression
expression of Snail (Pancreatic CSCs [1]; q-RT-PCR, EGCG 0-60 μM, 48 h): inhibited the expression
expression of ZEB1 (Pancreatic CSCs [1]; q-RT-PCR, EGCG 0-60 μM, 48 h): inhibited the expression
caspase-3/7 activity (Pancreatic CSCs [2]; EGCG 0-60 μM, 24 h): induced caspase-3/7 activity and apoptosis in pancreatic CSCs in a dose-dependent manner

CC(=O)c1c(O)c(C)c(O)c(Cc2c(O)c3c(c(C(=O)/C=C/c4ccccc4)c2O)OC(C)(C)C=C3)c1O [rottlerin]
expression of Gli2 (Pancreatic CSCs [1]; [3]): inhibited the expression
expression of Nanog (Pancreatic CSCs [1]; [3]): inhibited the expression
expression of Patched-1 (Pancreatic CSCs [1]; [3]): inhibited the expression
expression of Slug (Pancreatic CSCs [1]; [3]): inhibited the expression
expression of Smo (Pancreatic CSCs [1]; [3]): inhibited the expression
expression of Sox-2 (Pancreatic CSCs [1]; [3]): inhibited the expression
expression of Zeb-1 (Pancreatic CSCs [1]; [3]): inhibited the expression
expression of cMyc (Pancreatic CSCs [1]; [3]): inhibited the expression
expression of Bcl-2 (Pancreatic CSCs [1]; [4]): inhibited the expression
expression of XIAP (Pancreatic CSCs [1]; [4]): inhibited the expression
expression of survivin (Pancreatic CSCs [1]; [4]): inhibited the expression
caspase-3/-7 activity (Pancreatic CSCs [2]; rottlerin 0-2 μM, 48 h, colorometric assay): induced
